The structures appear in SMILES notation. Several values for one entry are separate records, joined by “and”; a condition that tells them apart may be missing. Equal values may be shown once.

One compound from patent US5985893A, “Physically stable solid form of a fluoroquinolone” (Pharmacia & Upjohn Company, priority 1996, dated 1999) can be followed below.

Type in all cases: physicochemical
Data set [1] is described as follows: Stability of the solid forms to phase transformation (overall finding). Particulars: variety of conditions.
The nature of data set [2]: Solubility of the quinolone, Forms I and III, in ethyl acetate. The note with it: 20° C, two values given. How it is done: Bulk drug samples are prepared by dissolving the material in mobile phase at a final concentration of approximately 0.25 to 0.5 mg/ml. For solubility experiments, 100 mcl aliquots of ethyl acetate solutions are withdrawn and placed directly into HPLC autosampler vials. A gentle stream of nitrogen gas is used to evaporate the solvent in the sample vials. The solids are reconstituted with 0.5 ml of HPLC mobile phase prior to analysis.
Solubilities are measured in ethyl acetate. Five to ten milligrams of bulk drug are placed into an amber autoinjector vial, and 3.0 ml of ethyl acetate are added. The vials are capped and shaken for intervals up to 24 hours at room temperature using a Burrell model BB wrist-action shaker. Aliquots are withdrawn from the supernate after centrifugation. The final sample is taken from a quiescent solution which had not been shaken since the 24 hour timepoint.
The solubilities of Forms I and III were determined in ethyl acetate at room temperature; the solubility data for each form was gathered simultaneously, to assure that each form's solubility was measured under identical conditions. Ethyl acetate was employed as an aprotic solvent yielding fairly low equilibrium solubilities of the quinolone; ethyl acetate has been used to evaluate the difference in free energy of polymorphic forms of an antinociceptive drug, as described by K. Raghavan et al., J. Pharm. Biomed. Anal. Vol.12 (6), pp. 777-785 (1994). Under the assumption that the solubilities in TABLE S are consistent with the dilute solution limit, we can use the following expression to calculate the difference in Gibbs free energy between Form I and Form III: [formula] where "sx " is the solubility of Form x in a sufficiently dilute solution, R is the gas constant, and T is the absolute temperature. Using the data in Table 1, we find that the Gibbs free energy of Form III is lower than that of Form I by 7.7±0.2 kJ/mole.

The nature of data set [3]: DSC and thermomicroscopy of solid-state transformations. How it is done: A Nikon POH-2 polarized light compound microscope with 10× objective is employed to view specimens mounted dry between a glass microscope slide and a no. 11/2 Cover slip. The samples are heated from ambient through 250° C. in a Mettler FP-80 microfurnace controlled by a Mettler FP-8 microprocessor. The heating rates may vary from 5-20° C./minute. The hot-stage experiments may be videotaped (Sony T120-HG and PM VHS tape) with a Hitachi VK-C350 Color Video Camera and a Panasonic AG-6200 Video Cassette Recorder.
Differential scanning calorimetry (DSC) is used to monitor enthalpy changes as a function of temperature during a linear temperature increase. A DuPont 910 DSC interfaced to a TA Instruments TA2100 computer may be used. The scan rate is 5° C./minute, and the instrument is operated with a 50-80 cc/min dry nitrogen purge. Samples are encapsulated in hermetically sealed aluminum sample pans with a pressure rating of about 2 bar. In some experiments, the lids of the pans are perforated to permit the passage of moisture and other volatile components.
Because calorimetric samples are occasionally affected by residual moisture, samples are sometimes studied with different initial water activities. Samples are weighed into tared DSC pans, and the open pans are permitted to equilibrate for several days in chambers of constant relative humidity at 25±1° C. These chambers are prepared from saturated salt solutions at 53% RH and 75% RH. At the end of the equilibration period, the chambers are opened, and the lids are placed over the samples to prevent re-equilibration with the ambient atmosphere. The samples are removed from the chambers, and the pans are quickly crimped closed.
Detailed description of FIG. 8. […] The heating rate is 5° C./minute. (a.) The sample is encapsulated in a standard DSC pan. (b.) The sample is encapsulated in a hermetically sealed DSC pan. The profiles are offset along the ordinate axis for comparison.
Detailed description of FIG. 10. […] The heating rate was 5° C./minute. (a.) The sample was equilibrated at 53% RH and encapsulated in a standard DSC pan. (b.)The sample was equilibrated at 53% RH and encapsulated in a hermetically sealed DSC pan. (c.) The sample was equilibrated at 75% RH and encapsulated in a hermetically sealed DSC pan. The profiles were offset along the ordinate axis for comparison.

Data set [4] is described as follows: Dynamic moisture sorption gravimetry (controlled atmosphere microbalance, 25° C). The procedure: Dynamic Moisture Sorption Gravimetry
Dynamic moisture uptake is studied on the controlled atmosphere microbalance system at 25° C. About ten mg of sample are equilibrated on the balance for about 2 hours at 2.5% RH. The relative humidity surrounding the sample is increased in increments of 3% RH up to about 92% RH, at which point the RH is decremented in 3% steps to a final RH of about 2.5%. At each relative humidity, the sample is allowed to equilibrate until the mass is stable within 0.0005 mg over a ten minute period. The dry mass is assumed to correspond to the mass of the sample after the initial equilibration period. A controlled atmosphere microbalance is a balance system described by Bergren, M.S. Int. J. Pharm. (1994) Vol. 103, pp. 103-114.
Detailed description of FIG. 2. […] The ordinate represents the mass change relative to the lowest mass measurement. The abscissa is relative humidity. The circles represent points recorded after sequential increases in the relative humidity and the squares were recorded after decreases in the relative humidity. The horizontal line in the middle of the plot corresponds to the water content of the hypothetical monohydrate of the quinolone.
Detailed description of FIG. 6. […] The ordinate represents the mass change relative to the lowest mass measurement. The abscissa is relative humidity. The circles represent points recorded after sequential increases in the relative humidity and the squares were recorded after decreases in the relative humidity. The horizontal line in the middle of the plot corresponds to the water content of the hypothetical monohydrate of the quinolone.

As for `CN[C@@H](C)[C@@H]1CCN(c2c(F)cc3c(=O)c(C(=O)O)cn(C4CC4)c3c2OC)C1` [Form I, [S-(R*,S*)]-1-cyclopropyl-6-fluoro-1,4-dihydro-8-methoxy-7-[3-[1-(methylamino)ethyl]-1-pyrrolidinyl]-4-oxo-3-quinolinecarboxylic acid], the “Stability to transformation (in words)” value in data set [1] is recorded as “undergo phase transformations under a variety of conditions”. Moreover, the “Solubility, concentration” value in data set [2] (1 hour, 60 min) is 2.89 mg/mL and 2.78 mg/mL; in data set [2] (2 hours, 120 min), 2.18 mg/mL and 2.99 mg/mL; in data set [2] (4.5 hours, 270 min) it was 3.01 mg/mL and 3.11 mg/mL; in data set [2] (18 hours, 1080 min), 3.02 mg/mL and 3.08 mg/mL; in data set [2] (24 hours, 1440 min), 3.24 mg/mL and 3.32 mg/mL; in data set [2] (67.5 hours (not shaken after 24 hours), 4050 min), 3.22 mg/mL and 3.24 mg/mL. The “DSC first merged endotherm/exotherm (melt/recrystallization)” value in data set [3] (FIG. 8, 5° C./minute) was 140-150 °C. For the same compound, the “DSC second merged endotherm/exotherm (melt/recrystallization)” value in data set [3] (FIG. 8, 5° C./minute) was 165-180 °C. Moreover, in data set [3] (equilibrated at 53% RH, hermetically sealed pan), the “DSC melt/recrystallization range, probably direct Form I to Form III” value was 140-150 °C. For the same compound, in data set [3] (equilibrated at 75% RH, hermetically sealed pan), the “DSC exotherm prior to Form III melt” value was “about 130 °C”. The “Temperature of Form I to Form II transformation” value in data set [3] (slow heating/ thermomicroscopy melt/recrystallization) is 140-151 °C and 143-151 °C. In addition, the “Moisture content on desorption” value is reported as “about 4.3%” in data set [4] (RH decreased to 10%) and “about 4.9%” in data set [4] (RH decreased to 80%). Also, the Moisture plateau in data set [4] (sorption, 90-92% RH) was 7.5-7.7 % w/w. The compound further gave a Moisture pickup in data set [4] (sorption, up to 70% RH) of 1%.
